Assay results reported in patent US6613718B2, “Aryl ether derivatives and processes for their preparation and herbicidal and desiccant compositions containing them” (Ishihara Sangyo Kaisha, Ltd., priority 2001, dated 2003).

Key:
[1] = test system: common ragweed (Ambrosia artemisiifolia L., AMBEL); experiment: Post-emerge greenhouse herbicide activity screening, phytotoxicity rating; assay type: in vivo
Summary of the method: (§1)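 For foliar (post-emergence) testing, 2-3 leaf seedlings were sprayed with acetone solutions including 0.25% v/v non-ionic surfactant, rates 15–1000 g ai/ha, then bottom-watered. Soil-applied (pre-emergence) tests used pots sown one day before spraying. Ratings, 0–100, were made at 14 days.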

[2] = test system: green foxtail (Setaria viridis, SETVI); experiment: as above; assay type: in vivo
Summary of the method: as §1

[3] = test system: barnyardgrass (Echinochloa crus-galli, ECHCG); experiment: as above; assay type: in vivo; conditions: 14 days after application
Summary of the method: as §1

[4] = test system: velvetleaf (Abutilon theophrasti, ABUTH); experiment: as above; assay type: in vivo; conditions: 14 days after application
Summary of the method: as §1

[5] = test system: ivyleaf morningglory (Ipomoea hederacea, IPOHE); experiment: as above; assay type: in vivo; conditions: 14 days after application
Summary of the method: as §1

[6] = test system: lambsquarters (Chenopodium album, CHEAL); experiment: as above; assay type: in vivo
Summary of the method: as §1

[7] = test system: large crabgrass (Digitaria sanguinalis, DIGSA); experiment: as above; assay type: in vivo; conditions: 14 days after application
Summary of the method: as §1

[8] = test system: johnsongrass (Sorghum halepense, SORHA); experiment: as above; assay type: in vivo; conditions: 14 days after application
Summary of the method: as §1

[9] = test system: sicklepod (Cassia obtusifolia, CASOB); experiment: as above; assay type: in vivo
Summary of the method: as §1

[10] = test system: redroot pigweed (Amaranthus retroflexus, AMARE); experiment: as above; assay type: in vivo
Summary of the method: as §1

[11] = test system: common ragweed (Ambrosia artemisiifolia L., AMBEL); experiment: Pre-emerge greenhouse herbicide activity screening, phytotoxicity rating; assay type: in vivo; conditions: 14 days after application
Summary of the method: as §1

[12] = test system: green foxtail (Setaria viridis, SETVI); experiment: as above; assay type: in vivo; conditions: 14 days after application
Summary of the method: as §1

[13] = test system: barnyardgrass (Echinochloa crus-galli, ECHCG); experiment: as above; assay type: in vivo; conditions: 14 days after application
Summary of the method: as §1

[14] = test system: velvetleaf (Abutilon theophrasti, ABUTH); experiment: as above; assay type: in vivo; conditions: 14 days after application
Summary of the method: as §1

[15] = test system: ivyleaf morningglory (Ipomoea hederacea, IPOHE); experiment: as above; assay type: in vivo; conditions: 14 days after application
Summary of the method: as §1

[16] = test system: lambsquarters (Chenopodium album, CHEAL); experiment: as above; assay type: in vivo; conditions: 14 days after application
Summary of the method: as §1

[17] = test system: large crabgrass (Digitaria sanguinalis, DIGSA); experiment: as above; assay type: in vivo; conditions: 14 days after application
Summary of the method: as §1

[18] = test system: johnsongrass (Sorghum halepense, SORHA); experiment: as above; assay type: in vivo; conditions: 14 days after application
Summary of the method: as §1

[19] = test system: sicklepod (Cassia obtusifolia, CASOB); experiment: as above; assay type: in vivo; conditions: 14 days after application
Summary of the method: as §1

[20] = test system: redroot pigweed (Amaranthus retroflexus, AMARE); experiment: as above; assay type: in vivo; conditions: 14 days after application
Summary of the method: as §1

[21] = test system: soybean (Glycine max L., var. Pella 86, SOY); experiment: Pre-emerge greenhouse screening, crop safety (phytotoxicity rating); assay type: in vivo; conditions: 14 days after application
Summary of the method: as §1

[22] = test system: field corn (Zea mays L., var. Dekalb 535, CORN); experiment: as above; assay type: in vivo; conditions: 14 days after application
Summary of the method: as §1

[23] = test system: upland rice (Oryza sp., var.Tebonnet, RICE); experiment: as above; assay type: in vivo; conditions: 14 days after application
Summary of the method: as §1

[24] = test system: soybean (Glycine max L., var. Pella 86, SOY); experiment: Post-emerge greenhouse screening, crop safety (phytotoxicity rating); assay type: in vivo; conditions: 14 days after application
Summary of the method: as §1

[25] = test system: upland rice (Oryza sp., var.Tebonnet, RICE); experiment: as above; assay type: in vivo; conditions: 14 days after application
Summary of the method: as §1

[26] = Post-emerge greenhouse screening, crop safety / corn selectivity (phytotoxicity rating); assay type: in vivo, Zea mays L.; conditions: Zea mays (field corn), in vivo
Summary of the method: as §1

[27] = test system: field corn (Zea mays L., var. Dekalb 535, CORN); experiment: as above; assay type: in vivo; conditions: 14 days after application
Summary of the method: as §1

[28] = 125 g ai/ha, 14 days after application
[29] = 250 g ai/ha, 14 days after application

Cn1c(C(F)(F)F)cc(=O)n(-c2cc(Oc3ncccn3)c(Cl)cc2F)c1=S [Compound 1-1, 3-[4-Chloro-2-fluoro-5-(2-pyrimidinyloxy)phenyl]-2,3-dihydro-1-methyl-2-thioxo-6-(trifluoromethyl)-4(1H)-pyrimidinone]
AMBEL phytotoxicity rating (0-100 scale) ([1]; 31.3 g ai/ha): 75 | AMBEL phytotoxicity rating (0-100 scale) ([1]; 62.5 g ai/ha): 98 | AMBEL phytotoxicity rating (0-100 scale) [1, 28]: 99 | AMBEL phytotoxicity rating (0-100 scale) [1, 29]: 100 | SETVI phytotoxicity rating (0-100 scale) ([2]; 31.3 g ai/ha): 85 | SETVI phytotoxicity rating (0-100 scale) ([2]; 62.5 g ai/ha): 99 | SETVI phytotoxicity rating (0-100 scale) [2, 28]: 100 | SETVI phytotoxicity rating (0-100 scale) [2, 29]: 100 | ECHCG phytotoxicity rating (0-100 scale) ([3]; 125 g ai/ha): 100 | ECHCG phytotoxicity rating (0-100 scale) ([3]; 250 g ai/ha): 100 | ABUTH phytotoxicity rating (0-100 scale) ([4]; 125 g ai/ha): 100 | ABUTH phytotoxicity rating (0-100 scale) ([4]; 250 g ai/ha): 100 | IPOHE phytotoxicity rating (0-100 scale) ([5]; 125 g ai/ha): 100 | IPOHE phytotoxicity rating (0-100 scale) ([5]; 250 g ai/ha): 100 | CHEAL phytotoxicity rating (0-100 scale) ([6]; 31.3 g ai/ha): 100 | CHEAL phytotoxicity rating (0-100 scale) ([6]; 62.5 g ai/ha): 100 | CHEAL phytotoxicity rating (0-100 scale) [6, 28]: 100 | CHEAL phytotoxicity rating (0-100 scale) [6, 29]: 100 | DIGSA phytotoxicity rating (0-100 scale) ([7]; 125 g ai/ha): 95 | DIGSA phytotoxicity rating (0-100 scale) ([7]; 250 g ai/ha): 90 | SORHA phytotoxicity rating (0-100 scale) ([8]; 125 g ai/ha): 95 | SORHA phytotoxicity rating (0-100 scale) ([8]; 250 g ai/ha): 98 | CASOB phytotoxicity rating (0-100 scale) ([9]; 31.3 g ai/ha): 95 | CASOB phytotoxicity rating (0-100 scale) ([9]; 62.5 g ai/ha): 99 | CASOB phytotoxicity rating (0-100 scale) [9, 28]: 99 | CASOB phytotoxicity rating (0-100 scale) [9, 29]: 99 | AMARE phytotoxicity rating (0-100 scale) ([10]; 31.3 g ai/ha): 100 | AMARE phytotoxicity rating (0-100 scale) ([10]; 62.5 g ai/ha): 100 | AMARE phytotoxicity rating (0-100 scale) [10, 28]: 100 | AMARE phytotoxicity rating (0-100 scale) [10, 29]: 100 | AMBEL phytotoxicity rating (0-100 scale) ([11]; 125 g ai/ha): 100 | AMBEL phytotoxicity rating (0-100 scale) ([11]; 250 g ai/ha): 100 | SETVI phytotoxicity rating (0-100 scale) ([12]; 125 g ai/ha): 100 | SETVI phytotoxicity rating (0-100 scale) ([12]; 250 g ai/ha): 100 | ECHCG phytotoxicity rating (0-100 scale) ([13]; 125 g ai/ha): 100 | ECHCG phytotoxicity rating (0-100 scale) ([13]; 250 g ai/ha): 100 | ABUTH phytotoxicity rating (0-100 scale) ([14]; 125 g ai/ha): 100 | ABUTH phytotoxicity rating (0-100 scale) ([14]; 250 g ai/ha): 100 | IPOHE phytotoxicity rating (0-100 scale) ([15]; 125 g ai/ha): 100 | IPOHE phytotoxicity rating (0-100 scale) ([15]; 250 g ai/ha): 100 | CHEAL phytotoxicity rating (0-100 scale) ([16]; 125 g ai/ha): 100 | CHEAL phytotoxicity rating (0-100 scale) ([16]; 250 g ai/ha): 100 | DIGSA phytotoxicity rating (0-100 scale) ([17]; 125 g ai/ha): 100 | DIGSA phytotoxicity rating (0-100 scale) ([17]; 250 g ai/ha): 100 | SORHA phytotoxicity rating (0-100 scale) ([18]; 125 g ai/ha): 100 | SORHA phytotoxicity rating (0-100 scale) ([18]; 250 g ai/ha): 100 | CASOB phytotoxicity rating (0-100 scale) ([19]; 125 g ai/ha): 100 | CASOB phytotoxicity rating (0-100 scale) ([19]; 250 g ai/ha): 100 | AMARE phytotoxicity rating (0-100 scale) ([20]; 125 g ai/ha): 100 | AMARE phytotoxicity rating (0-100 scale) ([20]; 250 g ai/ha): 100 | SOY crop damage, phytotoxicity rating (0-100 scale) ([21]; 125 g ai/ha): 100 | SOY crop damage, phytotoxicity rating (0-100 scale) ([21]; 250 g ai/ha): 80 | CORN crop damage, phytotoxicity rating (0-100 scale) ([22]; 125 g ai/ha): 100 | CORN crop damage, phytotoxicity rating (0-100 scale) ([22]; 250 g ai/ha): 100 | RICE crop damage, phytotoxicity rating (0-100 scale) ([23]; 125 g ai/ha): 100 | RICE crop damage, phytotoxicity rating (0-100 scale) ([23]; 250 g ai/ha): 100 | SOY crop damage, phytotoxicity rating (0-100 scale) ([24]; 125 g ai/ha): 100 | SOY crop damage, phytotoxicity rating (0-100 scale) ([24]; 250 g ai/ha): 100 | RICE crop damage, phytotoxicity rating (0-100 scale) ([25]; 125 g ai/ha): 100 | RICE crop damage, phytotoxicity rating (0-100 scale) ([25]; 250 g ai/ha): 100 | corn phytotoxicity rating (0-100 scale) at 14 days ([26]; 31.3 g ai/ha): 8 | corn phytotoxicity rating (0-100 scale) at 14 days ([26]; 62.5 g ai/ha): 8 | CORN crop damage, phytotoxicity rating (0-100 scale) ([27]; 125 g ai/ha): 10 | CORN crop damage, phytotoxicity rating (0-100 scale) ([27]; 250 g ai/ha): 15

O=[N+]([O-])c1ccccc1Oc1cc(-c2nn3c(c2Cl)CCCC3)c(F)cc1Cl [Compound 6-19]
AMBEL phytotoxicity rating (0-100 scale) [1, 29]: 50 | SETVI phytotoxicity rating (0-100 scale) [2, 29]: 65 | ECHCG phytotoxicity rating (0-100 scale) ([3]; 250 g ai/ha): 60 | ABUTH phytotoxicity rating (0-100 scale) ([4]; 250 g ai/ha): 100 | IPOHE phytotoxicity rating (0-100 scale) ([5]; 250 g ai/ha): 100 | CHEAL phytotoxicity rating (0-100 scale) [6, 29]: 98 | DIGSA phytotoxicity rating (0-100 scale) ([7]; 250 g ai/ha): 50 | SORHA phytotoxicity rating (0-100 scale) ([8]; 250 g ai/ha): 50 | CASOB phytotoxicity rating (0-100 scale) [9, 29]: 75 | AMARE phytotoxicity rating (0-100 scale) [10, 29]: 100 | AMBEL phytotoxicity rating (0-100 scale) ([11]; 250 g ai/ha): 50 | SETVI phytotoxicity rating (0-100 scale) ([12]; 250 g ai/ha): 95 | ECHCG phytotoxicity rating (0-100 scale) ([13]; 250 g ai/ha): 50 | ABUTH phytotoxicity rating (0-100 scale) ([14]; 250 g ai/ha): 65 | IPOHE phytotoxicity rating (0-100 scale) ([15]; 250 g ai/ha): 0 | CHEAL phytotoxicity rating (0-100 scale) ([16]; 250 g ai/ha): 100 | DIGSA phytotoxicity rating (0-100 scale) ([17]; 250 g ai/ha): 90 | SORHA phytotoxicity rating (0-100 scale) ([18]; 250 g ai/ha): 65 | CASOB phytotoxicity rating (0-100 scale) ([19]; 250 g ai/ha): 75 | AMARE phytotoxicity rating (0-100 scale) ([20]; 250 g ai/ha): 100 | SOY crop damage, phytotoxicity rating (0-100 scale) ([21]; 250 g ai/ha): 50 | CORN crop damage, phytotoxicity rating (0-100 scale) ([22]; 250 g ai/ha): 0 | RICE crop damage, phytotoxicity rating (0-100 scale) ([23]; 250 g ai/ha): 0 | SOY crop damage, phytotoxicity rating (0-100 scale) ([24]; 250 g ai/ha): 40 | RICE crop damage, phytotoxicity rating (0-100 scale) ([25]; 250 g ai/ha): 35 | CORN crop damage, phytotoxicity rating (0-100 scale) ([27]; 250 g ai/ha): 3
